Experimental data taken from PMC5365648, “Pharmacokinetics of the Novel Echinocandin CD101 in Multiple Animal Species” (Antimicrobial Agents and Chemotherapy, 2017).
Read-outs that look alike come from different tables or passages of the source. Starred links: 1 amine or outer side, 2 acyl side, 3 side chain; linkers in the order of their positions; H or OH if unused. Positions of bridges follow the written chain, without caps; N, C: chain ends. Non-standard residues stand in square brackets, D forms with d. Residues, ends and D or L forms follow the SMILES beside them. *: point of attachment. Orn(4R-OH,5R-OCH2CH2NMe3+) = C[N+](C)(C)CCO[C@@H](N[*:3])[C@H](O)C[C@H](N[*:1])C(=O)[*:2]; pTerphenylCO(4''-OnC5H11) = CCCCCOc1ccc(-c2ccc(-c3ccc(C(=O)*)cc3)cc2)cc1; hTyr(3S-OH,4S-OH) = N[C@H](C(=O)O)[C@H](O)[C@@H](O)c1ccc(O)cc1; Pro(3S-OH,4S-Me) = C[C@H]1CN[C@H](C(=O)O)[C@H]1O; Hyp = O=C(O)[C@@H]1C[C@@H](O)CN1

Experiments:
[1] = Chimpanzee pharmacokinetics, i.v. infusion; assay type: in vivo, chimpanzees
Procedure: A single 1-mg/kg dose of CD101 or anidulafungin was administered by i.v. infusion (1 h) to female chimpanzees (n = 2/group), and blood samples (via peripheral vein) were drawn for plasma processing at the midpoint of infusion, at the end of infusion, at 2, 4, 8, 12, 24, 48, and 72 h postdose, and on days 5, 7, and 10 postdose.
(§1) For each of the pharmacokinetic studies, whole-blood samples (K3EDTA as anticoagulant) were collected and centrifuged within 30 min of collection. The resulting plasma was harvested and stored at −20°C until analysis. Tissue samples were homogenized by a bead-based homogenizer following the addition of deionized water to excised tissue in a 2:1 (vol/wt) ratio and stored at −20°C until analysis. Prior to analysis, plasma or homogenized tissue samples were quenched with acetonitrile (3:1, acetonitrile-plasma or tissue ratio) containing an appropriate internal standard (isotopically labeled d9-CD101 [mouse and rat] or a structural analog [dog, monkey, and chimpanzee]). Plasma and tissue homogenate concentrations (quantified against calibration standards processed the same way) were determined by reverse-phase, gradient liquid chromatography with tandem mass spectrometric detection (LC-MS/MS) using an AB-SCIEX API 3200Q/4000 mass spectrometry system. Calibration standard ranges were the following: 0.400 (lower limit of quantitation, [LLOQ]) to 200 μg/ml (CD101, mouse), 0.040 (LLOQ) to 10 μg/ml (anidulafungin, mouse), 0.002 (LLOQ) to 10 μg/ml (CD101, rat), 0.005 (LLOQ) to 10 μg/ml (anidulafungin, rat), 0.050 (LLOQ) to 10 μg/ml (CD101, dog), 0.020 (LLOQ) to 10 μg/ml (anidulafungin, dog), 0.010 (LLOQ) to 10 μg/ml (CD101, monkey), 0.001 (LLOQ) to 10 μg/ml (anidulafungin, monkey), 0.015 (LLOQ) to 10 μg/ml (CD101, chimpanzee), and 0.015 (LLOQ) to 10 μg/ml (anidulafungin, chimpanzee). When necessary, dilutions with blank matrix were made for samples that quantified above the upper limit of quantitation. The methods used in the analysis were qualified as fit for purpose: calibration standards were matrix matched with the exception that human plasma calibration standards were used to analyze chimpanzee plasma samples due to the rarity of blank chimpanzee plasma, and, for each analytical batch, triplicate calibration standards were included at the beginning, approximately in the middle, and at the end of the batch. Following analysis, quantitation was carried out by a calibration curve comprising the analyte/internal standard area ratio versus concentration. Analytical batch acceptance followed the general guidance that triplicate standards/quality controls be within ±20% for accuracy (percentage of nominal concentration) and ≤20% for precision (percent coefficient of variation).
(§2) Pharmacokinetic parameters were calculated by noncompartmental analysis using Phoenix WinNonlin (version 6.3; Pharsight, Mountain View, CA) from either individual or mean (mouse) concentration-time profiles. An unpaired t test was used to compare mean exposures from male and female rats.

[2] = Rat tissue distribution after i.v. bolus; assay type: in vivo, Sprague-Dawley rats; conditions: for Kp: rat, iv
Procedure: In one of three rat studies reported here, a single 5-, 15-, or 45-mg/kg dose of CD101 was administered by slow i.v. bolus (∼3 min) to Sprague-Dawley rats (n = 3 to 5/dose). Blood samples (via jugular vein catheter [JVC]) were drawn for plasma processing at 0.083, 0.25, 0.5, 1, 2, 4, 8, 24, 48, 120, 168, and 240 h after dosing. In the second rat study, conducted to assess tissue distribution, a single 5-mg/kg dose of CD101 was administered by slow i.v. bolus (∼3 min) to male Sprague-Dawley rats (n = 3 animals/time point). Blood samples (via cardiac puncture) were collected for plasma processing predose and at 0.083, 0.5, 1, 2, 4, 8, 24, 48, 72, 96, and 120 h postdose. In parallel with blood collection, animals were euthanized, and tissues (liver, lungs, kidneys, heart, spleen, and brain) were excised and frozen prior to analysis. In the third rat study, conducted to assess excretion, a single 5-mg/kg dose of CD101 was administered by slow i.v. bolus (∼3 min) to bile duct-cannulated male Sprague-Dawley rats (n = 3). Bile samples were collected from each animal into prelabeled bile collection tubes predose and at 0 to 8, 8 to 24, 24 to 48, 48 to 72, 72 to 96, and 96 to 120 h postdose; urine samples were collected from each animal at the same time points pre- and postdose.
as §1, §2

[3] = in vivo, iv, female chimpanzees, single 1 mg/kg i.v. infusion (1 h), plasma, LC-MS/MS, noncompartmental, n = 2
[4] = male Sprague-Dawley rats, single 5 mg/kg i.v. bolus
[5] = male Sprague-Dawley rats, single 5 mg/kg i.v. bolus, t = 120 h, LC-MS/MS, n = 3/time point

CCCCCOc1ccc(-c2ccc(-c3ccc(C(=O)N[C@H]4C[C@@H](O)[C@@H](OCC[N+](C)(C)C)NC(=O)[C@@H]5[C@@H](O)[C@@H](C)CN5C(=O)[C@H]([C@@H](C)O)NC(=O)[C@H]([C@H](O)[C@@H](O)c5ccc(O)cc5)NC(=O)[C@@H]5C[C@@H](O)CN5C(=O)[C@H]([C@@H](C)O)NC4=O)cc3)cc2)cc1 [CD101] ({pTerphenylCO(4''-OnC5H11)}-[Orn(4R-OH,5R-OCH2CH2NMe3+)]T[Hyp][hTyr(3S-OH,4S-OH)]T[Pro(3S-OH,4S-Me)]; lactam 1-C)
clearance fold lower than anidulafungin ([1]; chimpanzee, 1 mg/kg i.v. infusion, 0.06 versus 0.42 ml/min/kg, n = 2/group): over 7 fold | t1/2 fold longer than anidulafungin ([1]; chimpanzee, 1 mg/kg i.v. infusion, 81 versus 30 h, n = 2/group): 2.7 fold | AUC(0-inf) [1, 3]: 302 µg·h/mL | AUC(0-t) [1, 3]: 290 µg·h/mL | Cmax [1, 3]: 7150 ng/mL | Tmax [1, 3]: 1 h | half-life [1, 3]: 80.7 h | clearance ([1]; in vivo, iv, female chimpanzees, single 1 mg/kg i.v. infusion (1 h), plasma, LC-MS/MS, noncompartmental, n = 2, read-out: CL (clearance)): 3.41 mL/h/kg | Vd ([1]; in vivo, iv, female chimpanzees, single 1 mg/kg i.v. infusion (1 h), plasma, LC-MS/MS, noncompartmental, n = 2, read-out: Vss (volume of distribution at steady state)): 0.4 L/kg | Tmax in brain tissue [2, 4]: 48 h | Tmax in heart tissue [2, 4]: 8 h | time of maximum concentration in plasma and tissues except heart and brain (first sampling time) [2, 4]: 5 min | Mean AUC0–t in brain tissue [2, 5]: 145 µg·h/g | Mean AUC0–t in kidney tissue [2, 5]: 1,100 μg · hr/g | Kp ([2]; male, Sprague-Dawley, kidney, lung, liver, spleen / plasma, rats, 5 mg/kg i.v., read-out: Tissue/plasma AUC ratio, fold higher in major organs (kidney, lung, liver, spleen) than in plasma): 4 to 5 | Kp ([2]; brain / plasma, male Sprague-Dawley rats, single 5 mg/kg i.v. bolus, t = 120 h, tissue homogenate, LC-MS/MS, n = 3/time point, read-out: Tissue/plasma AUC0–t ratio, brain): 0.609 | Kp ([2]; heart / plasma, male Sprague-Dawley rats, single 5 mg/kg i.v. bolus, t = 120 h, tissue homogenate, LC-MS/MS, n = 3/time point, read-out: Tissue/plasma AUC0–t ratio, heart): 1.09 | Kp ([2]; kidney, male Sprague-Dawley rats, single 5 mg/kg i.v. bolus, t = 120 h, tissue homogenate, LC-MS/MS, n = 3/time point, read-out: Tissue/plasma AUC0–t ratio, kidney): 4.62 | Kp ([2]; liver, male Sprague-Dawley rats, single 5 mg/kg i.v. bolus, t = 120 h, tissue homogenate, LC-MS/MS, n = 3/time point, read-out: Tissue/plasma AUC0–t ratio, liver): 4.14 | Kp ([2]; lung, male Sprague-Dawley rats, single 5 mg/kg i.v. bolus, t = 120 h, tissue homogenate, LC-MS/MS, n = 3/time point, read-out: Tissue/plasma AUC0–t ratio, lung): 4.33 | Kp ([2]; spleen / plasma, male Sprague-Dawley rats, single 5 mg/kg i.v. bolus, t = 120 h, tissue homogenate, LC-MS/MS, n = 3/time point, read-out: Tissue/plasma AUC0–t ratio, spleen): 3.87
